Reference: patent publication US9073917B2, “Anti-cancer compound and pharmaceutical composition containing the same” (SANOFI, priority 2009, dated 2015)
pIC50: −log10 of the molar value. Where two headings read alike, the source gives them in different places.

Assays:
tumour cell line HeLa = assay: Cell proliferation, 14C-thymidine incorporation, HeLa; assay type: cell-based; conditions: for pIC50: 96 h, read-out: IC50 HeLa; for IC50: 96 hours treatment, read-out: IC50 HeLa (converted)
Source text: Measurement of the Cell Proliferation

[1] = Metabolism in the presence of human microsomal liver fractions; assay type: in vitro ADME; conditions: percentage disappearance, 5 μM, 20 minutes; for Human microsome: 1 mg/ml proteins, NADPH
Procedure: (§1) Evaluation of the Metabolism in the Presence of Microsomal Preparations of Human and Murine Livers.
(§2) The compounds of the invention (5 μM) are incubated at physiological temperature over human and murine microsomal liver fractions (1 mg/ml of proteins), diluted in a phosphate buffer, in the presence of bovine serum albumin (1 mg/ml BSA), and the reduced form of nicotinamide adenine dinucleotide phosphate (1 mM NADPH). To terminate incubation, four volumes of acetonitrile containing corticosterone as internal standard (IS) are added. The samples are centrifuged and the supernatants are analysed by liquid chromatography/tandem mass spectrometry coupling (LC/MS-MS). The LC/MS-MS analysis is performed on a QTRAP API4000 mass spectrometer (Sciex) equipped with an 1100 series chromatography system (Agilent) and a Pal CTC automatic injector. The data are acquired and analysed using Analyst 1.4.1 software. The samples are separated on a 3 μm C18 Polaris column, eluted at a flow rate of 0.7 ml/min with a gradient from acetonitrile (solvent B) into water containing 0.1% formic acid (solvent A). The elution programme is composed of the gradient from 20 to 90% of solvent B in 2 minutes, an isocratic stage at 90% of solvent B, for 0.9 minute, and a return to the initial conditions in 0.1 minute. The area of the chromatographic peaks for the compound and for the internal standard are integrated using the Analyst-Classic algorithm. The metabolic stability of the products of the invention is estimated by comparing the integration ratios (ion currents of the compounds/ion current IS) measured after 0 minute (t0) and 20 minutes (t20) of incubation. The metabolic stability is then expressed as a percentage disappearance in accordance with the following formula: Metabolism %=(ratio of peaks at t0−ratio of peaks at t20)/ratio of peaks at t0

[2] = Metabolism in the presence of murine microsomal liver fractions; assay type: in vitro ADME; conditions: percentage disappearance, 5 μM, 20 minutes; for Mouse microsome: 1 mg/ml proteins, NADPH
Procedure: as §1, §2

[3] = Chemical stability in various media (HPLC); assay type: physicochemical; conditions: 100 μM, 20° C., 48 hours
Procedure: Measurement of the Chemical Stability of the Compounds
The compounds are diluted in the media under study at a final concentration of 100 μM, by dilution of a 10 mM stock solution in DMSO. The solutions are stored at 20° C. for a total time of 48 hours, and the concentration of the compounds under study is measured over time (t=0, 1, 6, 12, 24 and 48 hours) by HPLC. HPLC analysis is carried out with an Agilent system 1100 instrument equipped with a diode array detector on a Luna 018 column, 30×4.6 mm, 3 μm (Phenomenex) which is eluted with a gradient from acetonitrile (solvent B) into water containing 0.5% (v/v) of formic acid (solvent A) at a flow rate of 1.5 ml/min and a temperature of 25° C. The elution programme consists of a gradient from 10 to 90% solvent B in 5 minutes, followed by an isocratic stage of one minute at 90% of solvent B, and return to the initial conditions over one minute. The concentration of the products under study is estimated from the height and area of the characteristic peak of the product under study on a chromatogram at the maximum wavelength of each product. The area and the height measured at each time of sampling are related to the area and height obtained for the sample at time 0. When degradation is observed, a half-life is measured from the resulting time-concentration curve.

[4] = Clearance in the presence of human hepatocytes; assay type: in vitro ADME; conditions: 0.5 or 5 μM, 24 hours, average over different preparations of hepatocytes
Procedure: The LC/MS-MS analysis is performed on a QTRAP API4000 mass spectrometer (Sciex) equipped with an 1100 series chromatography system (Agilent) and a Pal CTC automatic injector. The data are acquired and analysed using Analyst 1.4.1 software. The samples are separated on a 3 μm C18 Polaris column, eluted at a flow rate of 0.7 ml/min with a gradient from acetonitrile (solvent B) into water containing 0.1% formic acid (solvent A). The elution programme is composed of the gradient from 20 to 90% of solvent B in 2 minutes, an isocratic stage at 90% of solvent B, for 0.9 minute, and a return to the initial conditions in 0.1 minute.

HCT116 [5] = assay: cells; conditions: Homo sapiens, HCT-116, 96 h, read-out: IC50 HCT116
Procedure: (§3) The cell proliferation is estimated by the amount of ^14C-thymidine incorporated in the cells.
(§4) D0: the cells are seeded in 96-well Cytostar plates in 180 μL of culture medium. The plates are then placed in an incubator at 37° C., 5% CO2 for four hours. The test products are then added in a volume of 10 μL per well, starting from a 20× solution. This solution contains 2% of DMSO in the culture medium. The final concentration of DMSO is therefore 0.1%. The plates are then placed in an incubator at 37° C./5% CO2 for 72 hours. D3: after 72 hours, 10 μL per well of ^14C-thymidine at 10 μCi/mL in the culture medium are added. The plates are then placed in an incubator at 37° C., 5% CO2 for 24 hours. D4: The incorporation of ^14C thymidine is measured on a Micro-Beta radioactivity counter (Perkin-Elmer) after this 24-hour, “pulse” period. The total time of treatment of the cells with the test product is 96 hours.
(§5) The percentage inhibitions IC50 are calculated in Excel using the following formula:
(§6) [formula] X=Measurement for the Sample CC=Cell Control Blank=Measurement in the wells without cells

PDE3A = PDE3A (Homo sapiens (Human), UniProt Q14432); assay: Effect on the activity of the enzyme PDE3 (CEREP, HTRF); conditions: for pIC50: read-out: IC50 PDE3, recombinant PDE3A, substrate cAMP; for inhibition at 1 µM: read-out: PDE3 inhibition at 1000 nM
Source text: Evaluation of the Effect of the Compounds of the Invention on the Activity of the Enzyme PDE3

Aurora A = Aurora A (Homo sapiens (Human), UniProt O14965); assay: Aurora A kinase activity, radioactive 33P incorporation into NuMA fragment
Procedure: (§7) The kinase activity is measured by a radioactive assay of the amount of radioactive phosphate (^33P) incorporated into a fragment of the protein NuMA (Nuclear Mitotic Apparatus protein) after 30 minutes of incubation at 37° C. […] In each plate, there are eight control wells: four positive controls (maximum kinase activity), for which measurement is made in the presence of enzyme and substrate and in the absence of compound of the invention, and four negative controls (background) for which measurement is made in the absence of enzyme, substrate and test compound.
The recombinant human enzyme Aurora A used is expressed in entire form with a poly-Histidine tag in N-terminal position and is produced in E. coli.

Aurora B/Incenp = Aurora B/Incenp (Homo sapiens (Human), UniProt Q96GD4); assay: Aurora B/Incenp kinase activity, radioactive 33P incorporation into NuMA fragment
Procedure: as §7
The two proteins form a complex which is called Aurora B/Incenp. […] This fragment is used as substrate.

HCT116 [6] = conditions: read-out: IC50 HCT116; HCT116, 96 hours treatment
Procedure: as §3, §4, §5, §6

[7] = read-out: IC50 Aurora A, 10 nM Aurora A, 1 μM ATP, 500 nM NuMA, 30 min at 37° C.

Sequence of Aurora B/Incenp (Q96GD4 whole entry, the tested form may be a part): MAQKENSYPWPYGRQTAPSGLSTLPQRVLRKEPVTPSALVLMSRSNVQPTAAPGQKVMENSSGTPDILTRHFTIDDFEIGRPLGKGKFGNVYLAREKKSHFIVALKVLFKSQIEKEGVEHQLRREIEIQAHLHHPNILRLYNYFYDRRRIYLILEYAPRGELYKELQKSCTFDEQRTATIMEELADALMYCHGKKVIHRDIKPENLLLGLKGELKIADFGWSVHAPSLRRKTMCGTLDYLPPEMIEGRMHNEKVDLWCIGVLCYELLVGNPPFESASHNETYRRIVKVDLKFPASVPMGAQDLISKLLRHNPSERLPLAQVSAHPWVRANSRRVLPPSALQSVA
Sequence of Aurora B/Incenp (Q9NQS7 821-918 partner): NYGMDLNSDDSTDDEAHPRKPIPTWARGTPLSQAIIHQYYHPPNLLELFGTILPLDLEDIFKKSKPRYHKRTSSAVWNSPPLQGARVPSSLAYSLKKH
Sequence of Aurora A (O14965 whole entry, the tested form may be a part): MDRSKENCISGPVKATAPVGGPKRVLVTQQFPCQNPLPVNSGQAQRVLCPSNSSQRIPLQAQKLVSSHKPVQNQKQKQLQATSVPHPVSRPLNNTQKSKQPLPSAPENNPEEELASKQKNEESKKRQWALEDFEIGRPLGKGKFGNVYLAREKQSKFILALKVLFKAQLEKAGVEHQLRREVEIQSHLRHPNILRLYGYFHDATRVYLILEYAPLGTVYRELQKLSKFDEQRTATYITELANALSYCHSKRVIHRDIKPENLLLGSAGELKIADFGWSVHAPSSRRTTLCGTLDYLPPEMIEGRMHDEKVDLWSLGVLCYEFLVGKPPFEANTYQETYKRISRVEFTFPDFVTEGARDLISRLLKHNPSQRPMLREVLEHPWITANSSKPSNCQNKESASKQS
Sequence of PDE3A (Q14432 whole entry, the tested form may be a part): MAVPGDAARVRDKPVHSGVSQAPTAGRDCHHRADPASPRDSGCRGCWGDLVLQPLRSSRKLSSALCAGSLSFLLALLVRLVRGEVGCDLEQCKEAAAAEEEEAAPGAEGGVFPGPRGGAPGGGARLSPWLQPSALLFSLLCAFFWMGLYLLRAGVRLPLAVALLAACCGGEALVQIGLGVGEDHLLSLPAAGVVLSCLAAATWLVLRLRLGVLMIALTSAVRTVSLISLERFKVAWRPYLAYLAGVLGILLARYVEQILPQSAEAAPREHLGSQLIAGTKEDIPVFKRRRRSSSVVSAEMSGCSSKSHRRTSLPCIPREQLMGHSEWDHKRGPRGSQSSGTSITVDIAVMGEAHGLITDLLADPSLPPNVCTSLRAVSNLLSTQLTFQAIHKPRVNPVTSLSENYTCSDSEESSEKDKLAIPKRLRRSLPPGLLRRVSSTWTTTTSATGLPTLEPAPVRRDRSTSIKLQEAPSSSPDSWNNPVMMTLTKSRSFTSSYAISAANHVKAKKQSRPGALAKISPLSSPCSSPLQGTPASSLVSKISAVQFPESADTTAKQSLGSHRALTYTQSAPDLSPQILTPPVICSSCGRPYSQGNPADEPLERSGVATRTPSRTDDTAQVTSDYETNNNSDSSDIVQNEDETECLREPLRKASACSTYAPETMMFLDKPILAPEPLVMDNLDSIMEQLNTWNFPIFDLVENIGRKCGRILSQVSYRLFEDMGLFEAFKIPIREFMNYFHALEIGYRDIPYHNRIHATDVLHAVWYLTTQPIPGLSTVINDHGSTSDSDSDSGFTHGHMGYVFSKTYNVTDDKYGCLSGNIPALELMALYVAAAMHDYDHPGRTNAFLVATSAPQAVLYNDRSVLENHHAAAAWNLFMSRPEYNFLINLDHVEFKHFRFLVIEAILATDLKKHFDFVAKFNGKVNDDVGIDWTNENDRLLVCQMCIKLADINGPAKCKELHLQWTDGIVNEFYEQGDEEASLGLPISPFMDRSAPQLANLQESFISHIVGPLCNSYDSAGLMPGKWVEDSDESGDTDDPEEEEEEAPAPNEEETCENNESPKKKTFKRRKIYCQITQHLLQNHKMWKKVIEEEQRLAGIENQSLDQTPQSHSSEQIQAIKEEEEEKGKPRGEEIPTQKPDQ

Compound: CCOC(=O)c1[nH]cc2c1NC1=C(C(=O)CCC1)[C@@H]2c1ccc(Sc2nc3ccccc3[nH]2)o1 [Example 12]
- pIC50 (tumour cell line HeLa; Homo sapiens): 7.80
- Metabolism measured in the presence of human microsomal fraction [1]: 75%
- Human microsome [1]: 75%
- Metabolism measured in the presence of murine microsomal fraction [2]: 81%
- Mouse microsome [2]: 81%
- Chemical stability, HCl 0.05N 50/50 water/acetonitrile [3]: stable
- Chemical stability, NaOH 0.05N 50/50 water/acetonitrile [3]: stable
- Chemical stability, Phosphate buffer 25 mM pH = 7.4 50/50 water/acetonitrile [3]: stable
- Chemical stability, Phosphate buffer 25 mM pH = 7.4 + 1% 2-mercaptoethanol 50/50 water/acetonitrile [3]: unstable
- Chemical stability, Phosphate buffer 25 mM pH = 7.4 + 1% benzylamine 50/50 water/acetonitrile [3]: stable
- Intrinsic clearance measured in the presence of human hepatocytes [4]: 0.29 (average of 3 determinations obtained with 3 ml · h^−1 · 10^−6 cells
- pIC50 (HCT116 [5]): 9.00
- pIC50 (PDE3A): 7.17

Compound: CCOC(=O)c1[nH]cc2c1NC1=C(C(=O)CC(C)(C)C1)C2c1cccc(Oc2nc3ccccc3[nH]2)c1 (stereo not shown) [Example 7]
- IC50 (tumour cell line HeLa; Homo sapiens): 430 nM
- Human microsome [1]: 65%
- Mouse microsome [2]: 96%
- pIC50 (Aurora A): 8.52
- pIC50 (Aurora B/Incenp): 8.40

Compound: CCOC(=O)c1[nH]cc2c1NC1=C(C(=O)CCC1)C2c1cccc(Oc2nc3ccccc3[nH]2)c1 (racemic) [Example 1, ethyl 8-oxo-9-[3-(1H-benzimidazol-2-yloxy)phenyl]-4,5,6,7,8,9-hexahydro-2H-pyrrolo[3,4-b]quinoline-3-carboxylate]
- pIC50 (tumour cell line HeLa; Homo sapiens): 6.69
- Human microsome [1]: 37%
- Mouse microsome [2]: 31%
- inhibition at 1 µM (PDE3A): 78%
- pIC50 (Aurora B/Incenp): 8.40

Compound: CCOC(=O)c1[nH]cc2c1NC1=C(C(=O)CCC1)C2c1cccc(Oc2nc3ccccc3[nH]2)c1 (single isomer, unassigned) [Example 3, ethyl 8-oxo-9-[3-(1H-benzimidazol-2-yloxy)phenyl]-4,5,6,7,8,9-hexahydro-2H-pyrrolo[3,4-b]quinoline-3-carboxylate]
- pIC50 (tumour cell line HeLa; Homo sapiens): < 5.00
- pIC50 (Aurora B/Incenp): 6.05

Compound: O=C1CCCC2=C1C(c1cccc(Oc3nc4ccccc4[nH]3)c1)c1c[nH]nc1N2 (stereo not shown) [Example 5]
- IC50 (tumour cell line HeLa; Homo sapiens): 9630 nM
- pIC50 (Aurora A; [7]): 7.64
- pIC50 (Aurora B/Incenp): 8.22

Compound: CCOC(=O)c1[nH]cc2c1NC1=C(C(=O)CC(C)(C)C1)C2c1cccc(Sc2nc3ccccc3[nH]2)c1 (stereo not shown) [Example 8]
- IC50 (tumour cell line HeLa; Homo sapiens): 6860 nM
- Human microsome [1]: 80%
- Mouse microsome [2]: 84%
- pIC50 (Aurora A): 6.99
- pIC50 (Aurora B/Incenp): 7.68

Compound: O=C1CNCC2=C1C(c1cccc(Oc3nc4ccccc4[nH]3)c1)c1c[nH]nc1N2 (stereo not shown) [Example 6]
- pIC50 (tumour cell line HeLa; Homo sapiens): < 5.00
- pIC50 (Aurora B/Incenp): 7.89

Compound: CCOC(=O)c1[nH]cc2c1NC1=C(C(=O)CCC1)C2c1cccc(Oc2nc3ccccc3[nH]2)c1 (stereo not shown) [Example 2, ethyl 8-oxo-9-[3-(1H-benzimidazol-2-yloxy)phenyl]-4,5,6,7,8,9-hexahydro-2H-pyrrole[3,4-b]quinoline-3-carboxylate]
- IC50 (tumour cell line HeLa): 67 nM
- Metabolism measured in the presence of human microsomal fraction [1]: 32%
- Human microsome [1]: 32%
- Metabolism measured in the presence of murine microsomal fraction [2]: 50%
- Mouse microsome [2]: 50%
- Chemical stability, HCl 0.05N 50/50 water/acetonitrile [3]: stable
- Chemical stability, NaOH 0.05N 50/50 water/acetonitrile [3]: stable
- Chemical stability, Phosphate buffer 25 mM pH = 7.4 50/50 water/acetonitrile [3]: stable
- Chemical stability, Phosphate buffer 25 mM pH = 7.4 + 1% 2-mercaptoethanol 50/50 water/acetonitrile [3]: stable
- Chemical stability, Phosphate buffer 25 mM pH = 7.4 + 1% benzylamine 50/50 water/acetonitrile [3]: stable
- Intrinsic clearance measured in the presence of human hepatocytes [4]: 0.121 (average of 5 determinations obtained with 5 ml · h^−1 · 10^−6 cells
- pIC50 (HCT116 [6]): 7.70
- pIC50 (PDE3A): 5.40
- pIC50 (Aurora B/Incenp; read-out: IC50 Aurora B/Incenp): 9.00

Compound: CCOC(=O)c1[nH]cc2c1NC1=C(C(=O)CCC1)C2c1cccc(Sc2nc3ccccc3[nH]2)c1 (stereo not shown) [Example 4]
- pIC50 (tumour cell line HeLa; Homo sapiens): 5.01
- Human microsome [1]: 77%
- Mouse microsome [2]: 67%
- pIC50 (Aurora B/Incenp): 8.22

Compound: CCOC(=O)c1[nH]cc2c1NC1=C(C(=O)CCC1)C2c1ccc(Sc2nc3cccc(OC)c3[nH]2)o1 (stereo not shown) [Example 13]
- IC50 (tumour cell line HeLa; Homo sapiens): 20 nM
- Human microsome [1]: 53%
- Mouse microsome [2]: 74%
- inhibition at 1 µM (PDE3A): 93%
- pIC50 (Aurora B/Incenp): 8.00

Compound: CC1(C)CC(=O)C2=C(C1)Nc1n[nH]cc1C2c1cccc(Oc2nc3ccccc3[nH]2)c1 (stereo not shown) [Example 10]
- IC50 (tumour cell line HeLa; Homo sapiens): 6690 nM
- pIC50 (Aurora A; [7]): 7.66
- pIC50 (Aurora B/Incenp): 8.05
